# Tests used:
# [1] = test system: Normal human dermal fibroblasts (NB1RGB); test: Type I collagen production promotive action test; assay type: cell-based; details: 3 days, A/B×100 vs no sample
# Description: Normal human dermal fibroblasts (NB1RGB) were cultured using Dulbecco's modified Eagle's medium (DMEM) containing 10% FBS, and then the cells were collected by a trypsin treatment. The collected cells were diluted with DMEM containing 0.25% FBS to a cell density of 1.6×10^5 cells/mL, then seeded with 100 μL per well in a 96-well microplate, and cultured overnight.
# After the culturing was completed, 100 μL of the test sample (Sample 1, see Table 6 below for final concentration) dissolved in DMEM containing 0.25% FBS was added to each well, and culturing was performed for 3 days. As a control, culturing was performed in the same manner using DMEM containing 0.25% FBS to which no sample was added. After culturing, the amount of type I collagen in the medium of each well was measured by ELISA method. From the measurement results, the type I collagen production promotion rate (%) was calculated using the following equation.
# Type I collagen production promotion rate (%)=A/B×100
# Terms in the equation represent the following respective ones. • A: Type I collagen amount with test sample addition • B: Type I collagen amount without sample addition
# [2] = test system: cyclic AMP phosphodiesterase; test: Cyclic AMP phosphodiesterase activity inhibitory action test; assay type: biochemical
# Description: To 0.2 mL of 50 mmol/L Tris-HCl buffer solution (pH 7.5) containing 5 mmol/L magnesium chloride, 0.1 mL of 2.5 mg/mL bovine serum albumin solution, 0.1 mL of 0.1 mg/mL cyclic AMP phosphodiesterase solution, and 0.05 mL of the test sample solution (Sample 1, see Table 2 below for final concentration) were added, and the mixture was statically placed at 37° C. for 5 minutes. Then, 0.05 mL of 0.5 mg/mL cyclic AMP solution was added, and the mixture was reacted at 37° C. for 60 minutes. After the reaction was completed, the reaction was stopped by boiling in a boiling water bath for 3 minutes, and then centrifugal separation was applied (2260×g, 10 minutes, 4° C.). Cyclic AMP, a reaction substrate in the supernatant, was analyzed under the following high-performance liquid chromatography conditions. In addition, as a control, the same operation was performed by adding only the solvent to which no sample was added.
# • Product name: Chromatocorder 12 (available from SYSTEM INSTRUMENTS) • Stationary phase: Wakosil C18-ODS 5 μm (available from FUJIFILM Wako Pure Chemical Corporation) • Column length: 250 mm • Mobile phase: 1 mmol/L TBAP in 25 mmol/L KH2PO4: CH3CN=90:10 • Mobile phase flow rate: 1.0 mL/min • Detection: 260 nm
# Then, a peak area (A) of a cyclic AMP standard product, a peak area (B1) of the supernatant reaction solution of the cyclic AMP standard product and the cyclic AMP phosphodiesterase when no sample was added, and a peak area (B2) of the supernatant reaction solution of the cyclic AMP standard product and the cyclic AMP phosphodiesterase when the test sample was added were obtained. From the obtained results, a decomposition rate (C) of the cyclic AMP standard product when no sample was added and a decomposition rate (D) of the cyclic AMP standard product when the test sample was added were calculated using the following equations.
# After that, the cyclic AMP phosphodiesterase activity inhibition rate (%) was calculated from the following equation based on each decomposition rate (C, D) calculated from the above equations.
# [3] = test system: Normal human hair follicle dermal papilla cells (HFDPC); test: Follicle dermal papilla cell proliferation promotive action test (MTT); assay type: cell-based; details: 100 μmol/L, 4 days
# Description: Normal human hair follicle dermal papilla cells (HFDPC, derived from the parietal region of a person) were cultured using follicle dermal papilla cell growth medium (PCGM, available from TOYOBO CO., LTD.) containing 1% FCS and growth additives, and then the cells were collected by a trypsin treatment. The collected cells were diluted to a cell density of 1.0×10^4 cells/mL using Dulbecco's modified Eagle's medium (DMEM) containing 10% FBS, then seeded with 200 μL per well in a collagen-coated 96-well plate, and cultured for 3 days.
# After that, the medium was removed, 200 μL of the test sample (Sample 1, see Table 25 below for final concentration) dissolved in serum-free DMEM was added to each well, and culturing was further performed for 4 days. […] After the culturing was completed, the follicle dermal papilla cell proliferation promotive action was measured by MTT assay. […] The absorbance of this extract was measured at 570 nm giving the maximum absorption point of blue formazan. At the same time, the absorbance at a wavelength of 650 nm was measured as turbidity, and the difference between the two was determined as the production amount of blue formazan. From the measurement results, the follicle dermal papilla cell proliferation promotion rate (%) was calculated based on the following equation. […]
# AGEs = test: Advanced glycation end product (AGEs) decomposition promotive action test; details: preformed AGEs, 37° C., 20 days
# Description: In a 96-well type I collagen-coated plate (available from AGC Inc.), 100 μL of 0.2M D(−)-ribose solution prepared with PBS(−) buffer solution was added and statically placed at 37° C. for 2 weeks to form AGEs. In addition, the plate in which only the PBS(−) buffer solution was added was statically placed as a negative control in the same manner. After 2 weeks, 100 μL of the test sample (Sample 1, see Table 23 below for final concentration) prepared with PBS (−) buffer solution was added to each of the plates and statically further placed at 37° C. for 20 days. As a positive control, only PBS(−) buffer solution was statically placed in the same manner as substitute for the test sample, and as a negative control, only PBS(−) buffer solution was continued to be statically placed in the same manner. After 20 days, the amount of AGEs was measured by the ELISA method using an anti-AGEs antibody (available from TPANS GENIC INC.), and the AGEs decomposition promotive action was evaluated. From the obtained results, the AGEs decomposition promotion rate (%) was calculated using the following equation.
# Terms in the equation represent the following respective ones. • A: Absorbance at wavelength 405 nm in negative control • B: Absorbance at wavelength 405 nm in positive control • C: Absorbance at wavelength 405 nm with test sample addition
compound,measurement,setting,value
"O=C(O)CCc1ccc(O)c(O)c1 [Sample 1, 3,4-Dihydroxyhydrocinnamic acid]",Type I collagen production promotion rate,[1]; 15.6 μmol/L,107.4%
same,Type I collagen production promotion rate,[1]; 62.5 μmol/L,112.8%
same,cAMP phosphodiesterase activity inhibition rate,[2]; 500 μmol/L,42.0%
same,cAMP phosphodiesterase activity inhibition rate,[2]; 1000 μmol/L,46.8%
same,cAMP phosphodiesterase activity inhibition rate,[2]; 2000 μmol/L,55.3%
same,Follicle dermal papilla cell proliferation promotion rate,[3],124.8%
same,AGEs decomposition promotion rate,AGEs; 125 μmol/L,37.7%
same,AGEs decomposition promotion rate,AGEs; 500 μmol/L,39.9%
same,AGEs decomposition promotion rate,AGEs; 2000 μmol/L,34.1%

# Source: US20240252456A1, “ORAL COMPOSITION, SKIN COSMETIC AND HAIR COSMETIC” (MARUZEN PHARMACEUTICALS CO., LTD., priority 2021, published 2024)
